Measurements reported in patent publication US20210317092A1 (BAYER PHARMA AKTIENGESELLSCHAFT, priority 2016, published 2021).
Where two headings read alike, the source gives them in different places.

Experiments:
[1] = target: T1, human Bradykinin B1 receptor (Homo sapiens, UniProt P46663); experiment: Calcium flux Assay (FLIPR) with recombinant CHO-K1 cells expressing human Bradykinin B1 receptor, in presence (hB1 IC50) or absence (hB1 free IC50) of 0.1% BSA; format: cell-based
T1 construct: host or cells: CHO-K1
T1 sequence (P46663 1-353): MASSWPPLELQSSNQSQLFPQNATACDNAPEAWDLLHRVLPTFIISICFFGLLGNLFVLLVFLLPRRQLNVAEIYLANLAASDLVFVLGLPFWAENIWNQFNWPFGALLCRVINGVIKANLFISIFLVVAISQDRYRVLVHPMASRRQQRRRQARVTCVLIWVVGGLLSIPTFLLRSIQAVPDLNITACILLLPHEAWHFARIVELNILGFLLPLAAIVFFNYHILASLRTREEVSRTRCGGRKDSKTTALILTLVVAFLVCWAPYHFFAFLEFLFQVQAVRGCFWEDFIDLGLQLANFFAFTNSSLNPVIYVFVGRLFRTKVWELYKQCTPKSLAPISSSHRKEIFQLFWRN

[2] = target: T2, native human Bradykinin B1 receptor (Homo sapiens, UniProt P46663); experiment: Calcium flux Assay (FLIPR) with human fibroblasts expressing Bradykinin B1 receptor (hB1 IMR-90); format: cell-based; conditions: IMR-90 human fibroblasts expressing native Bradykinin B1 receptor
T2 construct: which express native human Bradykinin B1 receptor after induction with human IL-10; Coriell Institute; host or cells: IMR-90 human foetal lung fibroblasts, cytokine-induced
T2 sequence (P46663 1-353): T1 sequence (P46663 1-353)
Protocol: Calcium flux Assay (FLIPR) with human fibroblasts expressing Bradykinin B1 receptor (hB1 IMR-90)
The Calcium flux Assay was carried out utilising IMR-90 human foetal lung fibroblasts (American Type Culture Collection, Rockville, Md.; and Coriell Institute, Camden, N.J.), which express native human Bradykinin B1 receptor after induction with human […].
The fibroblasts were cultured in complete growth media comprised of Dulbecco's modified Eagle's medium (DMEM; Sigma) containing 10% foetal bovine serum, 4 mM L-glutamine, and 1% nonessential amino acids. The cells were maintained in a humidified atmosphere with 5% CO2 at 37° C. and were sub-cultured at a ratio of 1:3, every other day.
For the assay, IMR-90 fibroblasts were harvested using TrypLE Express (GIBCO/Invitrogen) and seeded into 384-well plates (Corning Cellbinding Surface, Cat. 3683) at a density of 15000 cells/well. The following day, cells were treated with 0.35 ng/mL human […] in 10% FBS/MEM for 3h to up-regulate Bradykinin B1 receptor. Induced cells were loaded with fluorescent calcium indicator by incubation with 2.5 μM Fluo-4/AM (Invitrogen) at 37° C., 5% CO2 for 2 h in the presence of 2.5 mM probenecid in 1% FBS/MEM. Extracellular dye was removed by washing with assay buffer (2.5 mM probenecid and 0.1% BSA in 20 mM HEPES/HBSS without bicarbonate or phenol red, pH 7.5). Compound examples were assayed at 8 concentrations in triplicate. After addition of compound examples to the cell plate and incubation for 30 min at 28° C., the addition of Bradykinin B1 agonist Lys-(Des-Arg)-Bradykinin (Bachem, Brackley) at a final concentration of EC90 was carried out on the FLIPR instrument while continuously monitoring Ca^2+-dependent fluorescence at 538 nm. A peptide antagonist Lys-(Des-Arg-Leu)-Bradykinin (Bachem, Brackley) at 20 µM was used to determine the full inhibition as control. IC50 values were determined by the same way described for the FLIPR assay with recombinant cells.

[3] = in absence of 0.1% BSA, read-out: hB1 free IC50
[4] = in presence of 0.1% BSA, read-out: hB1 IC50

## COc1ccc(-c2ccc(NC(=O)C3(c4ccc(C)c(F)c4)CC3)cc2-c2nnn[nH]2)cc1OC [Example 12, N-[3′,4′-dimethoxy-2-(1H-tetrazol-5-yl)biphenyl-4-yl]-1-(3-fluoro-4-methylpheny) cyclopropane-carboxamide]
[1]; [3]
  IC50: 0.0564 µM
[1]; [4]
  IC50: 0.0181 µM
[2]
  IC50: 0.0393 µM

## COc1ccc(-c2ccc(NC(=O)C3(c4ccc(Cl)c(F)c4)CC3)cc2-c2nnn[nH]2)cc1OC [Example 16, 1-(4-chloro-3-fluorophenyl)-N-[3′,4′-dimethoxy-2-(1H-tetrazol-5-yl)biphenyl-4-yl]cyclopropane carboxamide]
[1]; [4]
  IC50: 0.0317 µM
[2]
  IC50: 0.528 µM

## COc1ccc(-c2ccc(NC(=O)C3(c4cc(Cl)ccc4F)CC3)cc2-c2nnn[nH]2)cc1OC [Example 17, 1-(5-chloro-2-fluorophenyl)-N-[3′,4′-dimethoxy-2-(1H-tetrazol-5-yl)biphenyl-4-yl]cyclopropane carboxamide]
[1]; [4]
  IC50: 0.0685 µM
[2]
  IC50: 0.263 µM

## COc1ccc(-c2ccc(NC(=O)C3(c4ccc(Cl)cc4F)CC3)cc2-c2nnn[nH]2)cc1OC [Example 18, 1-(4-chloro-2-fluorophenyl)-N-[3′,4′-dimethoxy-2-(1H-tetrazol-5-yl)biphenyl-4-yl]cyclopropane carboxamide]
[1]; [4]
  IC50: 0.0402 µM
[2]
  IC50: 0.0274 µM

## COc1ccc(-c2ccc(NC(=O)C3(c4ccc(Cl)cn4)CC3)cc2-c2nnn[nH]2)cc1OC [Example 23, 1-(5-chloropyridin-2-yl)-N-[3′,4′-dimethoxy-2-(1H-tetrazol-5-yl)biphenyl-4-yl]cyclopropane carboxamide]
[1]; [3]
  IC50: 0.145 µM
[1]; [4]
  IC50: 0.176 µM
[2]
  IC50: 0.0352 µM

## COc1ccc(-c2ccc(NC(=O)C3(c4ccccc4Cl)CC3)cc2-c2nnn[nH]2)cc1OC [Example 36, 1-(2-chlorophenyl)-N-[3′,4′-dimethoxy-2-(1H-tetrazol-5-yl)biphenyl-4-yl]cyclopropane carboxamide]
[1]; [4]
  IC50: 0.128 µM
[2]
  IC50: 0.104 µM

## COc1ccc(-c2ccc(NC(=O)C3(c4ccc(C(F)(F)F)cc4)CC3)cc2-c2nnn[nH]2)cc1OC [Example 44, N-[3′,4′-dimethoxy-2-(1H-tetrazol-5-yl)biphenyl-4-yl]-1-[4-(trifluoromethyl)phenyl] cyclopropane-carboxamide]
[1]; [3]
  IC50: 0.0057 µM
[1]; [4]
  IC50: 0.023 µM
[2]
  IC50: 0.00547 µM

## COc1ccc(-c2ccc(NC(=O)C3(c4ccc(F)c(C)c4)CC3)cc2-c2nnn[nH]2)cc1OC [Example 48, N-[3′,4′-dimethoxy-2-(1H-tetrazol-5-yl)biphenyl-4-yl]-1-(4-fluoro-3-methylphenyl) cyclopropane-carboxamide]
[1]; [4]
  IC50: 0.0505 µM
[2]
  IC50: 0.0293 µM

## COc1ccc(-c2ccc(NC(=O)C3(C4CCC(C)(C)CC4)CC3)cc2-c2nnn[nH]2)cc1OC [Example 56, N-[3′,4′-dimethoxy-2-(1H-tetrazol-5-yl)biphenyl-4-yl]-1-(4,4-dimethyl-cyclohexyl) cyclopropane-carboxamide]
[1]; [3]
  IC50: 0.0153 µM
[1]; [4]
  IC50: 0.0217 µM
[2]
  IC50: 0.0202 µM

## CCOc1ccc(-c2ccc(NC(=O)C3(c4ccc(Cl)c(F)c4)CC3)cc2-c2nnn[nH]2)cn1 [Example 70, 1-(4-chloro-3-fluorophenyl)-N-[4-(6-ethoxypyridin-3-yl)-3-(1H-tetrazol-5-yl)phenyl] cyclopropane-carboxamide]
[1]; [3]
  IC50: 0.00927 µM
[1]; [4]
  IC50: 0.0125 µM
[2]
  IC50: 0.006 µM

## CCOc1ccc(-c2ccc(NC(=O)C3(c4ccc(C(F)(F)F)cc4F)CC3)cc2-c2nnn[nH]2)cn1 [Example 72, N-[4-(6-ethoxypyridin-3-yl)-3-(1H-tetrazol-5-yl)phenyl]-1-[2-fluoro-4-(trifluoromethyl)phenyl] cyclopropane-carboxamide]
[1]; [3]
  IC50: 0.00682 µM
[1]; [4]
  IC50: 0.0155 µM
[2]
  IC50: 0.00572 µM

## CCOc1ccc(-c2ccc(NC(=O)C3(c4cccc(Cl)c4F)CC3)cc2-c2nnn[nH]2)cn1 [Example 73, 1-(3-chloro-2-fluorophenyl)-N-[4-(6-ethoxypyridin-3-yl)-3-(1H-tetrazol-5-yl)phenyl] cyclopropane-carboxamide]
[1]; [3]
  IC50: 0.0139 µM
[1]; [4]
  IC50: 0.0162 µM
[2]
  IC50: 0.00798 µM

## CCOc1ccc(-c2ccc(NC(=O)C3(c4cc(F)cc(Cl)c4)CC3)cc2-c2nnn[nH]2)cn1 [Example 77, 1-(3-chloro-5-fluorophenyl)-N-[4-(6-ethoxypyridin-3 yl)-3-(1H-tetrazol-5-yl)phenyl] cyclopropane-carboxamide]
[1]; [3]
  IC50: 0.0161 µM
[1]; [4]
  IC50: 0.024 µM
[2]
  IC50: 0.0217 µM

## CCOc1ccc(-c2ccc(NC(=O)C3(c4cc(Cl)ccc4F)CC3)cc2-c2nnn[nH]2)cn1 [Example 78, 1-(5-chloro-2-fluorophenyl)-N-[4-(6-ethoxypyridin-3-yl)-3-(1H-tetrazol-5-yl)phenyl] cyclopropane-carboxamide]
[1]; [3]
  IC50: 0.0212 µM
[1]; [4]
  IC50: 0.0245 µM
[2]
  IC50: 0.0158 µM

## CCOc1ccc(-c2ccc(NC(=O)C3(c4cccc(F)c4F)CC3)cc2-c2nnn[nH]2)cn1 [Example 79, 1-(2,3-difluorophenyl)-N-[4-(6-ethoxypyridin-3-yl)-3-(1H-tetrazol-5-yl)phenyl] cyclopropane-carboxamide]
[1]; [4]
  IC50: 0.0251 µM
[2]
  IC50: 0.0247 µM

## CCOc1ccc(-c2ccc(NC(=O)C3(c4cccc(F)c4)CC3)cc2-c2nnn[nH]2)cn1 [Example 80, N-[4-(6-ethoxypyridin-3-yl)-3-(1H-tetrazol-5-yl)phenyl]-1-(3-fluorophenyl) cyclopropane-carboxamide]
[1]; [3]
  IC50: 0.0296 µM
[1]; [4]
  IC50: 0.0256 µM
[2]
  IC50: 0.0272 µM

## CCOc1ccc(-c2ccc(NC(=O)C3(c4ccc(F)cc4)CC3)cc2-c2nnn[nH]2)cn1 [Example 81, N-[4-(6-ethoxypyridin-3-yl)-3-(1H-tetrazol-5-yl)phenyl]-1-(4-fluorophenyl) cyclopropane-carboxamide]
[1]; [3]
  IC50: 0.0291 µM
[1]; [4]
  IC50: 0.0275 µM
[2]
  IC50: 0.0212 µM

## CCOc1ccc(-c2ccc(NC(=O)C3(c4ccc(F)c(F)c4)CC3)cc2-c2nnn[nH]2)cn1 [Example 82, 1-(3,4-difluorophenyl)-N-[4-(6-ethoxypyridin-3-yl)-3-(1H-tetrazol-5-yl)phenyl] cyclopropane-carboxamide]
[1]; [3]
  IC50: 0.0291 µM
[1]; [4]
  IC50: 0.0333 µM
[2]
  IC50: 0.0149 µM

## CCOc1ccc(-c2ccc(NC(=O)C3(c4cc(F)ccc4F)CC3)cc2-c2nnn[nH]2)cn1 [Example 83, 1-(2,5-difluorophenyl)-N-[4-(6-ethoxypyridin-3-yl)-3-(1H-tetrazol-5-yl)phenyl] cyclopropane-carboxamide]
[1]; [3]
  IC50: 0.0605 µM
[1]; [4]
  IC50: 0.0375 µM
[2]
  IC50: 0.033 µM

## CCOc1ccc(-c2ccc(NC(=O)C3(c4ccc(OC)c(F)c4)CC3)cc2-c2nnn[nH]2)cn1 [Example 86, N-[4-(6-ethoxypyridin-3-yl)-3-(1H-tetrazol-5-yl)phenyl]-1-(3-fluoro-4-methoxyphenyl) cyclopropane-carboxamide]
[1]; [3]
  IC50: 0.0403 µM
[1]; [4]
  IC50: 0.0925 µM
[2]
  IC50: 0.0274 µM

## CCOc1ccc(-c2ccc(NC(=O)C3(C(F)(F)F)CC3)cc2-c2nnn[nH]2)cn1 [Example 91, N-[4-(6-ethoxypyridin-3-yl)-3-(1H-tetrazol-5-yl)phenyl]-1-(trifluoromethyl) cyclopropane-carboxamide]
[1]; [3]
  IC50: 0.452 µM
[1]; [4]
  IC50: 0.174 µM
[2]
  IC50: 0.161 µM

## CCOc1ccc(-c2ccc(NC(=O)C3(c4ccccc4F)CC3)cc2-c2nnn[nH]2)cn1 [Example 92, N-[4-(6-ethoxypyridin-3-yl)-3-(1H-tetrazol-5-yl)phenyl]-1-(2-fluorophenyl) cyclopropane-carboxamide]
[1]; [3]
  IC50: 0.0377 µM
[1]; [4]
  IC50: 0.0398 µM
[2]
  IC50: 0.0253 µM

## CC(C)c1cnn(-c2ccc(NC(=O)C3(c4ccc(OC(F)(F)F)cc4F)CC3)cc2-c2nnn[nH]2)c1 [Example 413, 1-[2-fluoro-4-(trifluoromethoxy)phenyl]-N-[4-(4-isopropyl-1H-pyrazol-1-yl)-3-(1H-tetrazol-5-yl)phenyl]cyclopro-panecarboxa-mide]
[1]; [3]
  IC50: 0.00584 µM
